Data as given in the NIST ThermoML archive (doi:10.1021/je600565m).
± gives the expanded uncertainty stated by the source.

Assay: xn = mol fraction of the nth substance listed
Conditions: 101 kPa, Liquid

With `CCO` [ethanol] + O as the molecule, how does the mass density (298.15 K, x2 = 0.0998) read?
Its mass density is 797.6 ± 0.34 kg/m3.

And the viscosity (298.15 K, x2 = 0.2009)?
The viscosity was 1.407 ± 0.033 mPa·s.

And the mass density (298.15 K, x2 = 0.2018)?
The mass density was 810.78 ± 0.32 kg/m3.

What about the viscosity (298.15 K, x2 = 0.3001) of the same molecule?
Its viscosity is 1.558 ± 0.037 mPa·s.

And the mass density (298.15 K, x2 = 0.3085)?
Its mass density is 826.73 ± 0.3 kg/m3.

And the viscosity (298.15 K, x2 = 0.4016)?
The viscosity was 1.761 ± 0.042 mPa·s.

And the mass density (298.15 K, x2 = 0.4145)?
The mass density was 843.26 ± 0.28 kg/m3.

And the mass density (298.15 K, x2 = 0.5001)?
The mass density was 858.65 ± 0.27 kg/m3.

And the viscosity (298.15 K, x2 = 0.5001)?
The viscosity was 1.946 ± 0.046 mPa·s.

And the viscosity (298.15 K, x2 = 0.6)?
The viscosity was 2.166 ± 0.051 mPa·s.

And the mass density (298.15 K, x2 = 0.6205)?
The mass density was 885.56 ± 0.24 kg/m3.

What about the viscosity (298.15 K, x2 = 0.7) of the same molecule?
Its viscosity is 2.342 ± 0.056 mPa·s.

And the mass density (298.15 K, x2 = 0.7005)?
Its mass density is 904.69 ± 0.22 kg/m3.

And the mass density (298.15 K, x2 = 0.7992)?
Its mass density is 933.6 ± 0.18 kg/m3.

And the viscosity (298.15 K, x2 = 0.8)?
Its viscosity is 2.39 ± 0.057 mPa·s.

What about the viscosity (298.15 K, x2 = 0.9) of the same molecule?
Its viscosity is 1.923 ± 0.046 mPa·s.

And the mass density (298.15 K, x2 = 0.9051)?
Its mass density is 965.51 ± 0.15 kg/m3.

And the mass density (318.15 K, x2 = 0.1)?
The mass density was 780.53 ± 0.36 kg/m3.

What about the viscosity (318.15 K, x2 = 0.1) of the same molecule?
The viscosity was 0.848 ± 0.02 mPa·s.

What about the viscosity (318.15 K, x2 = 0.2) of the same molecule?
Its viscosity is 0.951 ± 0.023 mPa·s.

What about the mass density (318.15 K, x2 = 0.201) of the same molecule?
The mass density was 793.6 ± 0.34 kg/m3.

And the mass density (318.15 K, x2 = 0.3001)?
The mass density was 807.71 ± 0.32 kg/m3.

What about the viscosity (318.15 K, x2 = 0.3001) of the same molecule?
The viscosity was 1.003 ± 0.024 mPa·s.

What about the mass density (318.15 K, x2 = 0.4004) of the same molecule?
The mass density was 823.81 ± 0.31 kg/m3.

What about the viscosity (318.15 K, x2 = 0.4036) of the same molecule?
Its viscosity is 1.09 ± 0.026 mPa·s.

And the viscosity (318.15 K, x2 = 0.5002)?
The viscosity was 1.168 ± 0.028 mPa·s.

And the mass density (318.15 K, x2 = 0.5003)?
Its mass density is 840.31 ± 0.29 kg/m3.

What about the mass density (318.15 K, x2 = 0.5998) of the same molecule?
Its mass density is 863.31 ± 0.26 kg/m3.

And the viscosity (318.15 K, x2 = 0.6)?
The viscosity was 1.243 ± 0.031 mPa·s.

What about the viscosity (318.15 K, x2 = 0.7) of the same molecule?
The viscosity was 1.298 ± 0.032 mPa·s.

And the mass density (318.15 K, x2 = 0.7001)?
The mass density was 888.76 ± 0.23 kg/m3.

What about the mass density (318.15 K, x2 = 0.8001) of the same molecule?
Its mass density is 919.19 ± 0.2 kg/m3.

What about the viscosity (318.15 K, x2 = 0.8007) of the same molecule?
The viscosity was 1.293 ± 0.035 mPa·s.

And the mass density (318.15 K, x2 = 0.9)?
Its mass density is 952.47 ± 0.17 kg/m3.

And the viscosity (318.15 K, x2 = 0.9)?
The viscosity was 0.977 ± 0.024 mPa·s.

Which mass density (298.15 K, x1 = 0.1) does the source give for `CCOC(C)=O` [ethyl acetate] + CCO here?
Its mass density is 801.5 ± 0.33 kg/m3.

And the viscosity (298.15 K, x1 = 0.1)?
The viscosity was 0.848 ± 0.02 mPa·s.

And the mass density (298.15 K, x1 = 0.1992)?
The mass density was 816.25 ± 0.32 kg/m3.

And the viscosity (298.15 K, x1 = 0.2)?
The viscosity was 0.707 ± 0.017 mPa·s.

And the viscosity (298.15 K, x1 = 0.3)?
Its viscosity is 0.614 ± 0.015 mPa·s.

And the mass density (298.15 K, x1 = 0.3006)?
The mass density was 829.52 ± 0.3 kg/m3.

And the mass density (298.15 K, x1 = 0.3949)?
The mass density was 840.61 ± 0.29 kg/m3.

And the viscosity (298.15 K, x1 = 0.4)?
Its viscosity is 0.56 ± 0.013 mPa·s.

What about the viscosity (298.15 K, x1 = 0.5) of the same molecule?
Its viscosity is 0.513 ± 0.012 mPa·s.

And the mass density (298.15 K, x1 = 0.5001)?
Its mass density is 852.04 ± 0.28 kg/m3.

And the mass density (298.15 K, x1 = 0.5987)?
Its mass density is 861.64 ± 0.27 kg/m3.

What about the viscosity (298.15 K, x1 = 0.6) of the same molecule?
The viscosity was 0.488 ± 0.012 mPa·s.

What about the mass density (298.15 K, x1 = 0.7) of the same molecule?
Its mass density is 870.79 ± 0.26 kg/m3.

And the viscosity (298.15 K, x1 = 0.7)?
The viscosity was 0.465 ± 0.011 mPa·s.

What about the mass density (298.15 K, x1 = 0.7981) of the same molecule?
Its mass density is 879.06 ± 0.25 kg/m3.

What about the viscosity (298.15 K, x1 = 0.8) of the same molecule?
The viscosity was 0.448 ± 0.011 mPa·s.

And the mass density (298.15 K, x1 = 0.9)?
The mass density was 886.96 ± 0.24 kg/m3.

What about the viscosity (298.15 K, x1 = 0.9) of the same molecule?
The viscosity was 0.434 ± 0.01 mPa·s.

What about the mass density (298.15 K, x1 = 0.9501) of the same molecule?
The mass density was 890.81 ± 0.24 kg/m3.

What about the mass density (318.15 K, x1 = 0.1) of the same molecule?
The mass density was 783.09 ± 0.35 kg/m3.

What about the viscosity (318.15 K, x1 = 0.1) of the same molecule?
Its viscosity is 0.624 ± 0.015 mPa·s.

And the viscosity (318.15 K, x1 = 0.2)?
Its viscosity is 0.535 ± 0.013 mPa·s.

What about the mass density (318.15 K, x1 = 0.2001) of the same molecule?
Its mass density is 796.45 ± 0.34 kg/m3.

And the mass density (318.15 K, x1 = 0.3)?
The mass density was 808.31 ± 0.33 kg/m3.

What about the viscosity (318.15 K, x1 = 0.3007) of the same molecule?
The viscosity was 0.471 ± 0.012 mPa·s.

And the viscosity (318.15 K, x1 = 0.4)?
The viscosity was 0.432 ± 0.01 mPa·s.

And the mass density (318.15 K, x1 = 0.4001)?
The mass density was 819.37 ± 0.31 kg/m3.

What about the mass density (318.15 K, x1 = 0.5) of the same molecule?
The mass density was 829.53 ± 0.3 kg/m3.

What about the viscosity (318.15 K, x1 = 0.5) of the same molecule?
Its viscosity is 0.412 ± 0.01 mPa·s.

And the mass density (318.15 K, x1 = 0.6)?
The mass density was 838.75 ± 0.29 kg/m3.

What about the viscosity (318.15 K, x1 = 0.6003) of the same molecule?
The viscosity was 0.387 ± 0.009 mPa·s.

What about the mass density (318.15 K, x1 = 0.7) of the same molecule?
The mass density was 847.18 ± 0.28 kg/m3.

And the viscosity (318.15 K, x1 = 0.7006)?
The viscosity was 0.374 ± 0.009 mPa·s.

And the viscosity (318.15 K, x1 = 0.8)?
The viscosity was 0.364 ± 0.009 mPa·s.

And the mass density (318.15 K, x1 = 0.8001)?
Its mass density is 855.16 ± 0.28 kg/m3.

What about the mass density (318.15 K, x1 = 0.8999) of the same molecule?
The mass density was 862.6 ± 0.27 kg/m3.

And the viscosity (318.15 K, x1 = 0.9)?
The viscosity was 0.36 ± 0.009 mPa·s.

Which results are given for `CCOC(C)=O` [ethyl acetate] + O?
viscosity (298.15 K, x2 = 0.0258): 0.436 ± 0.01 mPa·s; mass density (298.15 K, x2 = 0.0269): 895.32 ± 0.23 kg/m3; viscosity (298.15 K, x2 = 0.045): 0.444 ± 0.011 mPa·s; mass density (298.15 K, x2 = 0.0469): 896.13 ± 0.23 kg/m3; mass density (298.15 K, x2 = 0.0722): 897.09 ± 0.23 kg/m3; viscosity (298.15 K, x2 = 0.0748): 0.456 ± 0.011 mPa·s; viscosity (298.15 K, x2 = 0.0853): 0.46 ± 0.011 mPa·s; mass density (298.15 K, x2 = 0.0892): 897.9 ± 0.23 kg/m3; mass density (298.15 K, x2 = 0.1045): 898.48 ± 0.23 kg/m3; viscosity (298.15 K, x2 = 0.1053): 0.468 ± 0.011 mPa·s; mass density (298.15 K, x2 = 0.1249): 899.5 ± 0.23 kg/m3; viscosity (298.15 K, x2 = 0.1258): 0.476 ± 0.011 mPa·s; mass density (318.15 K, x2 = 0.0249): 870.81 ± 0.26 kg/m3; viscosity (318.15 K, x2 = 0.025): 0.362 ± 0.01 mPa·s; viscosity (318.15 K, x2 = 0.0496): 0.368 ± 0.011 mPa·s; mass density (318.15 K, x2 = 0.0524): 871.8 ± 0.26 kg/m3; viscosity (318.15 K, x2 = 0.075): 0.373 ± 0.009 mPa·s; mass density (318.15 K, x2 = 0.0766): 872.73 ± 0.26 kg/m3; viscosity (318.15 K, x2 = 0.0999): 0.379 ± 0.01 mPa·s; mass density (318.15 K, x2 = 0.1003): 873.94 ± 0.26 kg/m3; viscosity (318.15 K, x2 = 0.1254): 0.385 ± 0.009 mPa·s; mass density (318.15 K, x2 = 0.1255): 875.08 ± 0.25 kg/m3
